Test results: US9745311B2, “Substituted pyrrolo[2,3-b]pyrazines as FGFR inhibitors” (Incyte Corporation, priority 2012, dated 2017)
Like-named read-outs stand apart in the source and are kept apart here.

Legend:
[1] = target: FGFR1 (Homo sapiens (Human), UniProt P11362); experiment: FGFR Enzymatic Assay (FGFR1); type: biochemical; conditions: enzyme 0.02 nM, ATP 210 μM
Procedure: (§1) The inhibitor potency of compounds was measured in an enzyme assay that measures peptide phosphorylation using FRET measurements to detect product formation. Inhibitors were serially diluted in DMSO and a volume of 0.5 μL was transferred to the wells of a 384-well plate. For FGFR3, a 10 μL volume of FGFR3 enzyme (Millipore) diluted in assay buffer (50 mM HEPES, 10 mM MgCl2, 1 mM EGTA, 0.01% Tween-20, 5 mM DTT, pH 7.5) was added to the plate and pre-incubated for 5-10 minutes. Appropriate controls (enzyme blank and enzyme with no inhibitor) were included on the plate. […] The plate was incubated at 25° C. for 1 hr. […] The plate was allowed to equilibrate for ˜1 hr before scanning the wells on a PheraStar plate reader.
(§2) GraphPad prism3 was used to analyze the data. The IC50 values were derived by fitting the data to the equation for a sigmoidal dose-response with a variable slope. Y=Bottom+(Top−Bottom)/(1+10^((Log IC50−X)*HillSlope)) where X is the logarithm of concentration and Y is the response.

[2] = target: FGFR2 (Homo sapiens (Human), UniProt P21802); experiment: FGFR Enzymatic Assay (FGFR2); type: biochemical;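 further: FRET read-out of peptide phosphorylation by the purified kinase, with enzyme-free blank and uninhibited enzyme as controls, potency from a variable-slope sigmoidal dose-response fit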
FGFR2, sequence (P21802 22-821): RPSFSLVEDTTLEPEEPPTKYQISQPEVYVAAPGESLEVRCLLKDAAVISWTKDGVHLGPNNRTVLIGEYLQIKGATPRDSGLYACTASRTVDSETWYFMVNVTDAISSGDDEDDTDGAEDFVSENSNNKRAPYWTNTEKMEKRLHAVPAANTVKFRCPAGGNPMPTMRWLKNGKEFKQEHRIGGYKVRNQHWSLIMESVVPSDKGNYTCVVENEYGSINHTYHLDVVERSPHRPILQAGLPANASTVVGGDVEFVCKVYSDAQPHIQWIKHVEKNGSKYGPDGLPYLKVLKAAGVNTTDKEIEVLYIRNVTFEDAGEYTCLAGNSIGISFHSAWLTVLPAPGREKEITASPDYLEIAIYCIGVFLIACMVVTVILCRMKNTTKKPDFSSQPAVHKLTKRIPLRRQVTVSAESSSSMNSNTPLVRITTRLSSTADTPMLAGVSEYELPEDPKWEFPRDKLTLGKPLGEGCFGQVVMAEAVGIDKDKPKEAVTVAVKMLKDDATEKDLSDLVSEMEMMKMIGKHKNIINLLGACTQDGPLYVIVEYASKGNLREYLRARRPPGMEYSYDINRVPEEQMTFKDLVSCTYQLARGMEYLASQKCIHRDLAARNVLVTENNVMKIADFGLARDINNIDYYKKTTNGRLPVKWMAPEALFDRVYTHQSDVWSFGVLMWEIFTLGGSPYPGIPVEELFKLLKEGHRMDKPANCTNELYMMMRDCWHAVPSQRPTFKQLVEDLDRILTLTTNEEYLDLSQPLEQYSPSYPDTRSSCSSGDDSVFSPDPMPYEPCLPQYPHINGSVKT
Procedure: as §1, §2

[3] = target: T1, FGFR3 enzyme (Millipore) (Homo sapiens (Human), UniProt P22607); experiment: biochemical
T1 sequence (P22607 23-806): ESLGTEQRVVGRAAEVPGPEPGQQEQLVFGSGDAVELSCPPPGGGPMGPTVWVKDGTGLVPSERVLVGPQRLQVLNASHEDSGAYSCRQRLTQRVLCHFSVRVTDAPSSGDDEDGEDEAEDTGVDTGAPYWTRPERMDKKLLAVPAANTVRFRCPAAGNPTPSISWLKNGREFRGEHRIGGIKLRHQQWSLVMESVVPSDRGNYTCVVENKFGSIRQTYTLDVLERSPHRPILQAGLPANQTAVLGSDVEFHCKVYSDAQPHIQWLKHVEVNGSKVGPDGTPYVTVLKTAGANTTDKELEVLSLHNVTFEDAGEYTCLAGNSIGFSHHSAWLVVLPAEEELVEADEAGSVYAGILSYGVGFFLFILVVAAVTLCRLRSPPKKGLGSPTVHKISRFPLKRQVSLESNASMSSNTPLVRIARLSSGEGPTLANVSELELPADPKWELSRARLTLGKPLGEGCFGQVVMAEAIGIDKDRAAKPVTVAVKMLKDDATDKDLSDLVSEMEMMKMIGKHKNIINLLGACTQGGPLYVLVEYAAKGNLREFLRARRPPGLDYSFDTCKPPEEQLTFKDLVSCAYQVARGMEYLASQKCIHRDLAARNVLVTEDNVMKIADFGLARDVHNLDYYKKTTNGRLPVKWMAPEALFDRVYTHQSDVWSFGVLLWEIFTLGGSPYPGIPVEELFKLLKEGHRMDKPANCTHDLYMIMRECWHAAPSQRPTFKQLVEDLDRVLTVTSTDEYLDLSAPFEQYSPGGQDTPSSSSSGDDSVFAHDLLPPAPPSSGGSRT

[4] = target: T1, FGFR3 enzyme (Millipore); conditions: read-out: FGFR3 IC50, ATP 140 μM
[5] = enzyme 0.01 nM, ATP 100 μM, read-out: FGFR2 IC50

FGFR1, sequence (P11362 22-822): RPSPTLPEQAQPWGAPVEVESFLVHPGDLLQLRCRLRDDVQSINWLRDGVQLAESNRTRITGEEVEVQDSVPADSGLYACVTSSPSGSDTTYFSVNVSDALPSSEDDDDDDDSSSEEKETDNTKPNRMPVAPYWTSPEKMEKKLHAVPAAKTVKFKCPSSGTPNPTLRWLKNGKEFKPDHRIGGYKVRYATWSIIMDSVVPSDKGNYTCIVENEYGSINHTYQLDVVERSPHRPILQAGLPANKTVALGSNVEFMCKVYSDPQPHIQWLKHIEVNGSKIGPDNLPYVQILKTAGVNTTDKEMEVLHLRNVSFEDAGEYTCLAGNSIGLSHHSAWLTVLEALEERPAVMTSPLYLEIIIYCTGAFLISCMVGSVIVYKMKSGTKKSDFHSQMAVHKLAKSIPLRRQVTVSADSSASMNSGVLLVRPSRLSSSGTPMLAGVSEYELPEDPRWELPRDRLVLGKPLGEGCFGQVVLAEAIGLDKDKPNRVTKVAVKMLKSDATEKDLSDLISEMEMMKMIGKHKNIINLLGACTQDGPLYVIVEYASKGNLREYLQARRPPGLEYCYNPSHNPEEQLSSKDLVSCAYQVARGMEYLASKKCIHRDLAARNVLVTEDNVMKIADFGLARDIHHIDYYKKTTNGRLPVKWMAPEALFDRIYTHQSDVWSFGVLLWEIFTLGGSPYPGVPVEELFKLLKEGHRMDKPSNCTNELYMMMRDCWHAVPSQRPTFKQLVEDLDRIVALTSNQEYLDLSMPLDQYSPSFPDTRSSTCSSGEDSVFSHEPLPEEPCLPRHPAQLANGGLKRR

| IC50 ([4]; class symbols) [nM] | SMILES | IC50 [1] [nM] | IC50 [2, 5] [nM] | IC50 [3] [nM] | IC50 [2] [nM] | IC50 ([4]; numeric bounds) [nM] |
| --- | --- | --- | --- | --- | --- | --- |
| – | COc1cc(CCc2cnc3[nH]c(-c4ccnc(N5CCN(C)CC5)c4)cc3n2)cc(OC)c1 [Example 55, 2-(3,5-Dimethoxyphenethyl)-6-(2-(4-methylpiperazin-1-yl)pyridin-4-yl)-5H-pyrrolo[2,3-b]pyrazine] | < 100 | < 100 | 100 to 500 | – | – |
| – | COc1cc(CCc2cnc3[nH]c(-c4ccc(C(=O)N(C)C)cc4)cc3n2)cc(OC)c1 [Example 7, 4-{2-[2-(3,5-dimethoxyphenyl)ethyl]-5H-pyrrolo[2,3-b]pyrazin-6-yl}-N,N-dimethylbenzamide] | < 100 | < 100 | 100 to 500 | – | – |
| – | COc1cc(CCc2cnc3[nH]c(-c4cncc(N5CCOCC5)c4)cc3n2)cc(OC)c1 [Example 69, 4-(5-(2-(3,5-Dimethoxyphenethyl)-5H-pyrrolo[2,3-b]pyrazin-6-yl)pyridin-3-yl)morpholine] | < 100 | < 100 | 100 to 500 | – | – |
| – | COc1cc(CCc2cnc3[nH]c(-c4c(F)cccc4F)cc3n2)cc(OC)c1 [Example 4, 6-(2,6-difluorophenyl)-2-(3,5-dimethoxyphenethyl)-5H-pyrrolo[2,3-b]pyrazine] | < 100 | – | 500 to 2700 | 100 to 500 | – |
| – | COc1cc(CCc2cnc3[nH]c(-c4cnc(N)nc4)cc3n2)cc(OC)c1 [Example 58, 5-(2-(3,5-Dimethoxyphenethyl)-5H-pyrrolo[2,3-b]pyrazin-6-yl)pyrimidin-2-amine] | < 100 | < 100 | 100 to 500 | – | – |
| – | COc1cc(CCc2cnc3[nH]c(-c4ccc(CC#N)cc4)cc3n2)cc(OC)c1 [Example 14, (4-{2-[2-(3,5-dimethoxyphenyl)ethyl]-5H-pyrrolo[2,3-b]pyrazin-6-yl}phenyl)acetonitrile] | < 100 | < 100 | 100 to 500 | – | – |
| – | COc1cc(CCc2cnc3[nH]c(C4=CCN(C)CC4)cc3n2)cc(OC)c1 [Example 23, 2-[2-(3,5-dimethoxyphenyl)ethyl]-6-(1-methyl-1,2,3,6-tetrahydropyridin-4-yl)-5H-pyrrolo[2,3-b]pyrazine] | < 100 | < 100 | 100 to 500 | – | – |
| – | COc1cc(CCc2cnc3[nH]c(-c4ccnc(C(=O)N5CC(O)C5)c4)cc3n2)cc(OC)c1 [Example 75, (4-(2-(3,5-Dimethoxyphenethyl)-5H-pyrrolo[2,3-b]pyrazin-6-yl)pyridin-2-yl)(3-hydroxyazetidin-1-yl)methanone] | < 100 | < 100 | 100 to 500 | – | – |
| – | COc1cc(CCc2cnc3[nH]c(-c4ccc(OC)nc4)cc3n2)cc(OC)c1 [Example 61, 2-(3,5-Dimethoxyphenethyl)-6-(6-methoxypyridin-3-yl)-5H-pyrrolo[2,3-b]pyrazine] | < 100 | < 100 | 100 to 500 | – | – |
| – | COc1cc(CCc2cnc3[nH]c(-c4cnn(CCO)c4)cc3n2)cc(OC)c1 [Example 38, 2-(4-{2-[2-(3,5-dimethoxyphenyl)ethyl]-5H-pyrrolo[2,3-b]pyrazin-6-yl}-1H-pyrazol-1-yl)ethanol] | < 100 | < 100 | 100 to 500 | – | – |
| – | COc1cc(CCc2cnc3[nH]c(-c4ccccc4C#N)cc3n2)cc(OC)c1 [Example 10, 2-{2-[2-(3,5-dimethoxyphenyl)ethyl]-5H-pyrrolo[2,3-b]pyrazin-6-yl}benzonitrile] | < 100 | < 100 | 500 to 2700 | – | – |
| – | COc1cc(CCc2cnc3[nH]c(-c4ccc(C(=O)N(C)C)nc4)cc3n2)cc(OC)c1 [Example 59, 5-(2-(3,5-Dimethoxyphenethyl)-5H-pyrrolo[2,3-b]pyrazin-6-yl)-N,N-dimethylpicolinamide] | < 100 | < 100 | 100 to 500 | – | – |
| – | COc1cc(CCc2cnc3[nH]c(-c4ccccc4C)cc3n2)cc(OC)c1 [Example 9, 2-[2-(3,5-dimethoxyphenyl)ethyl]-6-(2-methylphenyl)-5H-pyrrolo[2,3-b]pyrazine] | < 100 | – | 500 to 2700 | 100 to 500 | – |
| – | COc1cc(CCc2cnc3[nH]c(-c4cnn(C)c4)cc3n2)cc(OC)c1 [Example 30, 2-[2-(3,5-dimethoxyphenyl)ethyl]-6-(1-methyl-1H-pyrazol-4-yl)-5H-pyrrolo[2,3-b]pyrazine] | < 100 | < 100 | 100 to 500 | – | – |
| – | COc1cc(CCc2cnc3[nH]c(-c4cnn(C5CCN(C)CC5)c4)cc3n2)cc(OC)c1 [Example 37, 2-[2-(3,5-dimethoxyphenyl)ethyl]-6-[1-(1-methylpiperidin-4-yl)-1H-pyrazol-4-yl]-5H-pyrrolo[2,3-b]pyrazine] | < 100 | < 100 | 100 to 500 | – | – |
| – | COc1cc(CCc2cnc3[nH]c(-c4ccc(F)c(C(=O)N(C)C)c4)cc3n2)cc(OC)c1 [Example 54, 5-(2-(3,5-Dimethoxyphenethyl)-5H-pyrrolo[2,3-b]pyrazin-6-yl)-2-fluoro-N,N-dimethylbenzamide] | < 100 | < 100 | 100 to 500 | – | – |

| IC50 ([4]; class symbols) [nM] | SMILES | IC50 [1] [nM] | IC50 [2, 5] [nM] | IC50 [3] [nM] | IC50 [2] [nM] | IC50 ([4]; numeric bounds) [nM] |
| --- | --- | --- | --- | --- | --- | --- |
| – | COc1cc(CCc2cnc3[nH]c(-c4cnn(CCN5CCN(C)CC5)c4)cc3n2)cc(OC)c1 [Example 42, 2-[2-(3,5-dimethoxyphenyl)ethyl]-6-{1-[2-(4-methylpiperazin-1-yl)ethyl]-1H-pyrazol-4-yl}-5H-pyrrolo[2,3-b]pyrazine] | < 100 | < 100 | 100 to 500 | – | – |
| < 100 | CNC(=O)c1cc(-c2cc3nc(CCc4cc(OC)cc(OC)c4)cnc3[nH]2)ccn1 [Example 73, 4-(2-(3,5-Dimethoxyphenethyl)-5H-pyrrolo[2,3-b]pyrazin-6-yl)-N-methylpicolinamide] | < 100 | < 100 | – | – | – |
| < 100 | CCN1CCN(c2ccc(-c3cc4nc(CCc5cc(OC)cc(OC)c5)cnc4[nH]3)cc2)CC1 [Example 2, 2-[2-(3,5-dimethoxyphenyl)ethyl]-6-[4-(4-ethylpiperazin-1-yl)phenyl]-5H-pyrrolo[2,3-b]pyrazine] | < 100 | < 100 | – | – | – |
| < 100 | COc1cc(CCc2cnc3[nH]c(-c4ccc(N5CCN(C)CC5)cc4)cc3n2)c(F)c(OC)c1 [Example 82, 2-(2-Fluoro-3,5-dimethoxyphenethyl)-6-(4-(4-methylpiperazin-1-yl)phenyl)-5H-pyrrolo[2,3-b]pyrazine] | < 100 | < 100 | – | – | – |
| < 100 | COc1cc(CCc2cnc3[nH]c(-c4ccc(CN5CCCCC5)cc4)cc3n2)cc(OC)c1 [Example 11, 2-[2-(3,5-dimethoxyphenyl)ethyl]-6-[4-(piperidin-1-ylmethyl)phenyl]-5H-pyrrolo[2,3-b]pyrazine] | < 100 | < 100 | – | – | – |
| < 100 | COc1cc(CCc2cnc3[nH]c(-c4cnn(CCN5CCOCC5)c4)cc3n2)cc(OC)c1 [Example 31, 2-[2-(3,5-dimethoxyphenyl)ethyl]-6-[1-(2-morpholin-4-ylethyl)-1H-pyrazol-4-yl]-5H-pyrrolo[2,3-b]pyrazine] | < 100 | < 100 | – | – | – |
| < 100 | COc1cc(OC)c(F)c(CCc2cnc3[nH]c(-c4cnn(C)c4)cc3n2)c1F [Example 84, 2-(2,6-difluoro-3,5-dimethoxyphenethyl)-6-(1-methyl-1H-pyrazol-4-yl)-5H-pyrrolo[2,3-b]pyrazine] | < 100 | < 100 | – | – | – |
| < 100 | COc1cc(CCc2cnc3[nH]c(-c4cnn(CC(C)(C)O)c4)cc3n2)cc(OC)c1 [Example 33, 1-(4-{2-[2-(3,5-dimethoxyphenyl)ethyl]-5H-pyrrolo[2,3-b]pyrazin-6-yl}-1H-pyrazol-1-yl)-2-methylpropan-2-ol] | < 100 | < 100 | – | – | – |
| < 100 | COc1cc(CCc2cnc3[nH]c(-c4ccc(C(=O)NC(C)C)c(Cl)c4)cc3n2)cc(OC)c1 [Example 53, 2-Chloro-4-(2-(3,5-dimethoxyphenethyl)-5H-pyrrolo[2,3-b]pyrazin-6-yl)-N-isopropylbenzamide] | < 100 | < 100 | – | – | – |
| < 100 | COc1cc(CCc2cnc3[nH]c(-c4ccccc4)cc3n2)cc(OC)c1 [Example 3, 2-(3,5-dimethoxyphenethyl)-6-phenyl-5H-pyrrolo[2,3-b]pyrazine] | < 100 | < 100 | – | – | – |
| – | CNC(=O)c1cc2nc(CCc3c(F)c(OC)cc(OC)c3F)cnc2[nH]1 [Example 89, 2-(2,6-difluoro-3,5-dimethoxyphenethyl)-N-methyl-5H-pyrrolo[2,3-b]pyrazine-6-carboxamide] | < 100 | < 100 | – | – | > 400 |
| < 100 | COc1cc(CCc2cnc3[nH]c(-c4cnn(C(C)CC#N)c4)cc3n2)cc(OC)c1 (stereo not drawn) [Example 36, 3-(4-(2-(3,5-dimethoxyphenethyl)-5H-pyrrolo[2,3-b]pyrazin-6-yl)-1H-pyrazol-1-l)butanenitrile] | < 100 | < 100 | – | – | – |
| < 100 | COc1cc(OC)c(Cl)c(CCc2cnc3[nH]c(-c4ccc(N5CCN(C)CC5)cc4)cc3n2)c1Cl [Example 49, 2-[2-(2,6-dichloro-3,5-dimethoxyphenyl)ethyl]-6-[4-(4-methylpiperazin-1-yl)phenyl]-5H-pyrrolo[2,3-b]pyrazine] | < 100 | < 100 | – | – | – |
| < 100 | COc1cc(CCc2cnc3[nH]c(-c4ccnc(N5CCNCC5)c4)cc3n2)cc(OC)c1 [Example 64, 2-(3,5-Dimethoxyphenethyl)-6-(2-(piperazin-1-yl)pyridin-4-yl)-5H-pyrrolo[2,3-b]pyrazine] | < 100 | < 100 | – | – | – |
| < 100 | COc1ccc(-c2cc3nc(CCc4cc(OC)cc(OC)c4)cnc3[nH]2)cc1 [Example 5, 2-[2-(3,5-dimethoxyphenyl)ethyl]-6-(4-methoxyphenyl)-5H-pyrrolo[2,3-b]pyrazine] | < 100 | < 100 | – | – | – |
